Measurements reported in patent US11685747B2, “Compounds that inhibit MCL-1 protein” (AMGEN INC., priority 2014, dated 2023).

Legend:
OPM-2 = experiment: Cell viability assay (OPM-2 10 FBS, CellTiter-Glo); type: cell-based, human; details: OPM-2 cells
Experimental: Cell Viability Assay (OPM-2 10 FBS)
Cells were seeded into 384-well plates at 3000 cells/well density in complete growth medium containing 10% FBS, and incubated for 16 h with serially diluted test compounds in a 37° C. incubator with 5% CO2. Cell viability was tested using CellTiter-Glo® assay (Promega, Madison, Wis.) according to the manufacturer recommendations. Luminescence was determined using an EnVision® Multilabel plate reader 25 min after the addition of detection reagent. IC50 values were then calculated with Xlfit using a logistical 4-parameter fit model in GraphPad Prism (GraphPad Software, San Diego, Calif.) or in Genedata Screener® (Genedata, Basel, Switzerland).

[1] = target: T1, Mcl-1/Bak protein-protein interactions (Homo sapiens, UniProt Q07820); experiment: Cell-based split luciferase complementation assay; details: HEK 293 M cells, serum-free, 4 h
T1 construct: expressed in transfected cells; host or cells: HEK 293 M cells, transient transfection
T1 sequence (Q07820 whole entry): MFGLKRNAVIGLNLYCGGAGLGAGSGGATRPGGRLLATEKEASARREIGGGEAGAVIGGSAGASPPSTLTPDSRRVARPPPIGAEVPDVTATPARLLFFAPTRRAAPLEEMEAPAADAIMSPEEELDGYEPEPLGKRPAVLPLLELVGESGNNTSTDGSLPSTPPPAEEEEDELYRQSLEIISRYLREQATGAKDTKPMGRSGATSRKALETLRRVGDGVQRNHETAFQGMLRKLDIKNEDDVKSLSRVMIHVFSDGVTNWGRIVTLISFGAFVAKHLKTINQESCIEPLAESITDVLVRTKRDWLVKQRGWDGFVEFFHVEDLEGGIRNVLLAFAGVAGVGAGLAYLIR
Experimental: Cell-Based Assay (Split Luciferase)
A split luciferase complementation assay was developed to determine the inhibition of Mcl-1/Bak protein-protein interactions in cells. […] Transient transfection was performed using Lipofectamine® LTX/Plus™ reagent (Life Technologies, Grand Island, N.Y.). 24 h after transfection, cells were collected using non-enzyme based cell dissociation buffer StemPro® Accutase® (Life Technologies), and resuspended in serum-free Opti-MEM® (Life Technologies). Cells were then seeded into assay plates with serially diluted test compounds in 0.3% DMSO at density of a 5000 cells/well. Cells were then incubated for 4 h at 37° C. in a cell culture incubator supplement with 5% CO2. Test plates were equilibrated to room temperate for 30 min before addition of 30 μL Steady-Glo® Luciferase assay reagent (Promega, Madison, Wis.) into each test well. Luminescence was determined using an EnVision® Multilabel plate reader 25 min after the addition of detection reagent. IC50 values were then calculated with Xlfit using a logistical 4-parameter fit model in GraphPad Prism (GraphPad Software, San Diego, Calif.) or in Genedata Screener® (Genedata, Basel, Switzerland).

recombinant human Mcl-1 = target: T2, recombinant human Mcl-1 (Homo sapiens, UniProt Q07820); experiment: Cell free Mcl-1:Bim affinity assay (Mcl-1 HTRF, TR-FRET); type: binding; details: inhibition of Mcl-1/Bim interaction
T2 construct: C-terminally 6×His tagged Mcl-1 containing residues 171-327; made in house
T2 sequence (Q07820 171-327): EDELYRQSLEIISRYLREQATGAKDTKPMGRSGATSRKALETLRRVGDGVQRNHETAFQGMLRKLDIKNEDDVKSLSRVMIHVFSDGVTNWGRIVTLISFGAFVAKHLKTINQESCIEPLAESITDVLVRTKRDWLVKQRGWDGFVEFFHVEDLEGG
Experimental: Cell Free Mcl-1:Bim Affinity Assay (Mcl-1 HTRF)
The inhibition of the Mcl-1/Bim interaction was measured using a time-resolved fluorescence resonance energy transfer (TR-FRET) assay. […] A biotinylated peptide derived from human Bim (residues 51-76) was purchased from CPC Scientific (San Jose, Calif.). The TR-FRET assay was conducted in a 384-well white OptiPlate™ (PerkinElmer, Waltham, Mass.) in a total volume of 40 μL. […] The reaction plates were further incubated overnight and then were read on an Envision® multimode reader (PerkinElmer). […] The IC50 values of test compounds were determined from duplicate data by analyzing competition curves using a four-parameter sigmoidal model in GraphPad Prism (GraphPad Software, San Diego, Calif.) or in Genedata Screener® (Genedata, Basel, Switzerland).

| SMILES | IC50 (OPM-2; 16 h) [nM] | IC50 [1] [nM] | IC50 (recombinant human Mcl-1) [nM] | IC50 (OPM-2; Homo sapiens, OPM-2, 16 h) [nM] |
| --- | --- | --- | --- | --- |
| C[C@H]1C/C=C/[C@H](O)[C@@H]2CC[C@H]2CN2C[C@@]3(CCCc4cc(Cl)ccc43)COc3ccc(cc32)C(=O)NS(=O)(=O)[C@@H]1CC1CC1 (single isomer, unassigned) [Example 60] | 158 | 23.4 | 0.514 |  |
| C[C@H]1C/C=C/[C@H](O)[C@@H]2CC[C@H]2CN2C[C@@]3(CCCc4cc(Cl)ccc43)COc3ccc(cc32)C(=O)NS(=O)(=O)[C@@H]1C1CC1 (single isomer, unassigned) [Example 45] | 20000 | 455 | 5.5 |  |
| CC[C@@H]1CC/C=C/[C@H](OC)[C@@H]2CC[C@H]2CN2C[C@@]3(CCCc4cc(Cl)ccc43)COc3ccc(cc32)C(=O)NS1(=O)=O [Example 20, (1S,3′R,6′R,7′S,8′E,12′R)-6-Chloro-12′-Ethyl-7′-Methoxy-3,4-Dihydro-2H,15′H-Spiro[Naphthalene-1,22′-[20]Oxa[13]Thia[1,14]Diazatetracyclo[14.7.2.0^3,6.0^19,24]Pentacos A[8,16,18,24]Tetraen]-15′-One 13′,13′-Dioxide] |  | 50.4 | 0.647 | 390 |
| CO[C@H]1/C=C/C[C@H](C)[C@@H](C2CC2)S(=O)(=O)NC(=O)c2ccc3c(c2)N(C[C@@H]2CC[C@H]21)C[C@@]1(CCCc2cc(Cl)ccc21)CO3 [Example 48, (1S,3′R,6′R,7′S,8′E,11′S,12′S)-6-Chloro-12′-Cyclopropyl-7′-Methoxy-11′-Methyl-3,4-Dihydro-2H,15′H-Spiro [Naphthalene-1,22′-[20]Oxa[13]Thia[1,14]Diazatetracyclo[14.7.2.0^3,6.0^19,24]Pentacosa[8,16,18,24]Tetraen]-15′-One 13′,13′-Dioxide] |  | 477 | 3.89 | 5580 |
| COCCO[C@H]1/C=C/C[C@@H](C)CS(=O)(=O)NC(=O)c2ccc3c(c2)N(C[C@@H]2CC[C@H]21)C[C@@]1(CCCc2cc(Cl)ccc21)CO3 (single isomer, unassigned) [Example 77] | 3160 | 260 | 6.12 |  |
| COCCO[C@H]1/C=C/C[C@H](C)[C@@H](C)S(=O)(=O)NC(=O)c2ccc3c(c2)N(C[C@@H]2CC[C@H]21)C[C@@]1(CCCc2cc(Cl)ccc21)CO3 [Example 74, (1S,3′R,6′R,7′S,8′E,11′S,12′R)-6-Chloro-7′-(2-Methoxyethoxy)-11′,12′-Dimethyl-3,4-Dihydro-2H,15′H-Spiro[Naphthalene-1,22′-[20]Oxa[13]Thia[1,14]Diazatetracyclo[14.7.2.0^3,6.0^19,24]Pentacosa[8,16,18,24]Tetraen]-15′-One-13′, 13′-Dioxide] |  | 273 | 2.23 | 1740 |
| C[C@@H]1C/C=C/[C@H](O)[C@@H]2CC[C@H]2CN2C[C@@]3(CCCc4cc(Cl)ccc43)COc3ccc(cc32)C(=O)NS(=O)(=O)[C@H]1CC1CCC1 (single isomer, unassigned) [Example 64] | 8630 | 318 | 13.6 |  |
| CCC[C@@H]1[C@@H](C)C/C=C/[C@H](O)[C@@H]2CC[C@H]2CN2C[C@@]3(CCCc4cc(Cl)ccc43)COc3ccc(cc32)C(=O)NS1(=O)=O [Example 70, (1S,3′R,6′R,7′S,8′E,11′S,12′R)-6-Chloro-7′-Hydroxy-11′-Methyl-12′-Propyl-3,4-Dihydro-2H,15′H-Spiro[Naphthalene-1,22′-[20]Oxa[13]Thia[1,14] Diazatetracyclo [14.7.2.0^3,6.0^19,24]Pentacosa [8,16,18,24]Tetraen]-15′-One 13′,13′-Dioxide] |  | 34.7 | 0.638 | 238 |
| CO[C@H]1CCC[C@H](C)[C@@H](C)S(=O)(=O)NC(=O)c2ccc3c(c2)N(C[C@@H]2CC[C@H]21)C[C@@]1(CCCc2cc(Cl)ccc21)CO3 [Example 7, (1S,3′R,6′R,7′S,11′S,12′R)-6-Chloro-7′-Methoxy-11′,12′-Dimethyl-3,4-Dihydro-2H,15′H-Spiro[Naphthalene-1,22′-[20]Oxa[13]Thia[1,14]Diazatetracyclo[14.7.2.0^3,6.0^19,24]Pentacos A[16,18,24]Trien]-15′-One 13′,13′-Dioxide] |  | 147 | 1.18 | 1060 |
| C[C@H]1C/C=C/[C@H](O)[C@@H]2CC[C@H]2CN2C[C@@]3(CCCc4cc(Cl)ccc43)COc3ccc(cc32)C(=O)NS(=O)(=O)[C@@H]1C1CC1 (single isomer, unassigned) [Example 47] | 284 | 60 | 0.248 |  |
| C[C@@H]1[C@@H](C)CCC[C@H](O)[C@@H]2CC[C@H]2CN2C[C@@]3(CCCc4cc(Cl)ccc43)COc3ccc(cc32)C(=O)NS1(=O)=O [Example 6, (1S,3′R,6′R,7′S,11′S,12′R)-6-Chloro-7′-Hydroxy-11′,12′-Dimethyl-3,4-Dihydro-2H,15′H-Spiro[Naphthalene-1,22′-[20]Oxa[13]Thia[1,14]Diazatetracyclo[14.7.2.0^3,6.0^19,24]Pentacos A[16,18,24]Trien]-15′-One 13′,13′-Dioxide] |  | 57.5 | 0.447 | 394 |
| CO[C@H]1/C=C/CCCS(=O)(=O)NC(=O)c2ccc3c(c2)N(C[C@@H]2CC[C@H]21)C[C@@]1(CCCc2cc(Cl)ccc21)CO3 [Example 9, (1S,3′R,6′R,7′S,8′E)-6-Chloro-7′-Methoxy-3,4-Dihydro-2H,15′H-Spiro[Naphthalene-1,22′-[20]Oxa[13]Thia[1,14]Diazatetracyclo[14.7.2.0^3,6.0^19,24]Pentacos A[8,16,18,24]Tetraen]-15′-One 13′,13′-Dioxide] |  | 127 | 1.24 | 1200 |
| CO[C@H]1/C=C/CC[C@@H](C)S(=O)(=O)NC(=O)c2ccc3c(c2)N(C[C@@H]2CC[C@H]21)C[C@@]1(CCCc2cc(Cl)ccc21)CO3 [Example 13, (1S,3′R,6′R,7′S,8′E,12′R)-6-Chloro-7′-Methoxy-12′-Methyl-3,4-Dihydro-2H,15′H-Spiro[Naphthalene-1,22′-[20]Oxa[13]Thia[1,14]Diazatetracyclo[14.7.2.0^3,6.0^19,24]Pentacos A[8,16,18,24]Tetraen]-15′-One 13′,13′-Dioxide] |  | 34.1 | 0.441 | 353 |
| CCC[C@@H]1[C@@H](C)C/C=C/[C@H](O)[C@@H]2CC[C@H]2CN2C[C@@]3(CCCc4cc(Cl)ccc43)COc3ccc(cc32)C(=O)NS1(=O)=O (single isomer, unassigned) [Example 68] | 179 | 16.4 | 0.501 |  |
| CC[C@@H]1[C@@H](C)C/C=C/[C@H](OC)[C@@H]2CC[C@H]2CN2C[C@@]3(CCCc4cc(Cl)ccc43)COc3ccc(cc32)C(=O)NS1(=O)=O [Example 25, (1S,3′R,6′R,7′S,8′E,11′S,12′R)-6-Chloro-12′-Ethyl-7′-Methoxy-11′-Methyl-3,4-Dihydro-2H,15′H-Spiro[Naphthalene-1,22′-[20]Oxa[13]Thia[1,14]Diazatetracyclo[14.7.2.0^3,6.0^19,24]Pentacosa[8,16,18,24]Tetraen]-15′-One 13′,13′-Dioxide] |  | 77.9 | 0.542 | 404 |
| COCCO[C@H]1/C=C/C[C@@H](C)[C@@H](C(C)C)S(=O)(=O)NC(=O)c2ccc3c(c2)N(C[C@@H]2CC[C@H]21)C[C@@]1(CCCc2cc(Cl)ccc21)CO3 [Example 54, (1S,3′R,6′R,7′S,8′E,11′R,12′R)-6-Chloro-7′-(2-Methoxyethoxy)-11′-Methyl-12′-(1-Methylethyl)-3,4-Dihydro-2H,15′H-Spiro[Naphthalene-1,22′-[20]Oxa[13]Thia[1,14]Diazatetracyclo[14.7.2.0^3,6.0^19,24]Pentacosa[8,16,18,24]Tetraen]-15′-One 13′,13′-Dioxide] |  | 29.1 | 0.153 | 131 |
| CC(C)[C@@H]1[C@H](C)C/C=C/[C@H](O)[C@@H]2CC[C@H]2CN2C[C@@]3(CCCc4cc(Cl)ccc43)COc3ccc(cc32)C(=O)NS1(=O)=O (single isomer, unassigned) [Example 51] | 14400 | 792 | 24.3 |  |
